Results from patent US20110003017A1, “Method for Preparation of Extract from Angelica Gigas Nakai and Composition Containing the Extract” (AZI Co., Ltd., priority 2007, published 2011).

Assay: antioxidant effects (electron donating ability) using DPPH
Type: biochemical
Conditions: DPPH radical scavenging, absorbance at 520 nm
Description: The antioxidant effects were determined using 1,1-diphenyl-2-picryl hydrazyl (DPPH). Analysis of the extract using DPPH is performed by the following method.
DPPH having radicals is mostly used for determining radical scavenging performance. DPPH was purchased from Sigma. The following procedures were carried out:
1) 2 ml of 0.1 mM […] (Sigma, D-9132) in ethanol was added to 2 ml of a sample dissolved in ethanol;
2) After mixing the solution for 10 minutes, the mixture was left in a dark place;
3) Absorbance of the resultant product at 520 nm was measured;
4) Calculation of antioxidant efficacy (electron donating ability),
EDA (electron donating ability)=(Cabs−Sabs)/Cabs*100
wherein • Cabs: absorbance of a negative control (which contains ethanol only instead of a sample), • Sabs: absorbance of a sample, and • Positive control: Vitamin E (Fluka, 95240) as a sample.
Antioxidant effects were compared between both extract powders obtained in Examples 1 and 2. Using DPPH analyzed and quantified EDA to determine the antioxidant effects of the extract powder. IC50 means a concentration required for scavenging 50% of radicals and it is determined that the antioxidant effects are enhanced as IC50 value is lowered.

Vitamin E
IC50 (concentration required for scavenging 50% of radicals): 15 µg/mL
